Measurements from ChEMBL document CHEMBL1132770, “Selective kappa-opioid antagonists related to naltrindole. Effect of side-chain spacer in the 5'-amidinoalkyl series” (Bioorg Med Chem Lett, 2000).

Tests used:
[1] = biological target: T1, Delta-type opioid receptor (Homo sapiens, UniProt P41143); experiment: Compound was evaluated for functional opioid activity by stimulation of [35S]GTP-gamma-S, in cloned human Opioid receptor delta 1 transfected into CHO cells; format: cell-based
Mu-type opioid receptor [2] = biological target: T2, Mu-type opioid receptor (Homo sapiens, UniProt P35372); experiment: Compound was evaluated for its binding affinity against CHO cells transfected with cloned human Opioid receptor mu 1 by displacing [3H]DAMGO; format: cell-based
[3] = biological target: T3, Kappa-type opioid receptor (Homo sapiens, UniProt P41145); experiment: Compound was evaluated for its binding affinity by displacing [3H]U-69593 to human cloned Kappa opioid receptor transfected into CHO cells using [35S]GTP-gamma-S, assay; format: functional, cell-based
[4] = biological target: T3, Kappa-type opioid receptor; experiment: Compound was evaluated for its binding affinity to CHO cells expressing cloned human Opioid receptor kappa 1 by displacing [3H]U-69593; format: cell-based
Mu-type opioid receptor [5] = biological target: T2, Mu-type opioid receptor; experiment: Compound was evaluated for its binding affinity by displacing DAMGO to human cloned mu opioid receptor transfected into CHO cells using [35S]GTP-gamma-S, assay; format: functional, cell-based
[6] = biological target: T1, Delta-type opioid receptor; experiment: Compound was evaluated for its binding affinity to CHO cells expressing cloned human Opioid receptor delta 1 by displacement of [3H]Cl-DPDPE; format: cell-based
Mu-type opioid receptor [7] = biological target: Mu-type opioid receptor (Cavia porcellus, UniProt P97266); experiment: Compound was evaluated for its binding affinity against Opioid receptor mu 1 of guinea pig brain membrane by displacing [3H]DAMGO
[8] = biological target: T1, Delta-type opioid receptor; experiment: Compound was evaluated for its binding affinity to CHO cells expressing cloned human Opioid receptor delta 1 by displacement of [3H]-Cl-DPDPE; format: cell-based

T1 sequence (P41143 whole entry): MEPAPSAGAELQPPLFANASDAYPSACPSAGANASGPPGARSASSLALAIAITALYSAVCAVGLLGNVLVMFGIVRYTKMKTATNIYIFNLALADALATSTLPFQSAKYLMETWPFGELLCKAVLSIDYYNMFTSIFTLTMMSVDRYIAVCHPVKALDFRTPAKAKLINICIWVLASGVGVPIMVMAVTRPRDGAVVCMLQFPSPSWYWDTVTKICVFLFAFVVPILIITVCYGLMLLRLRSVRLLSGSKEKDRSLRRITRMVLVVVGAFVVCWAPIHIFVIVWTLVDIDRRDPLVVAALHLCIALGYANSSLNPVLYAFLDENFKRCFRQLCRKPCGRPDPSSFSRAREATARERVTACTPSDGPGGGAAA
T2 sequence (P35372 whole entry): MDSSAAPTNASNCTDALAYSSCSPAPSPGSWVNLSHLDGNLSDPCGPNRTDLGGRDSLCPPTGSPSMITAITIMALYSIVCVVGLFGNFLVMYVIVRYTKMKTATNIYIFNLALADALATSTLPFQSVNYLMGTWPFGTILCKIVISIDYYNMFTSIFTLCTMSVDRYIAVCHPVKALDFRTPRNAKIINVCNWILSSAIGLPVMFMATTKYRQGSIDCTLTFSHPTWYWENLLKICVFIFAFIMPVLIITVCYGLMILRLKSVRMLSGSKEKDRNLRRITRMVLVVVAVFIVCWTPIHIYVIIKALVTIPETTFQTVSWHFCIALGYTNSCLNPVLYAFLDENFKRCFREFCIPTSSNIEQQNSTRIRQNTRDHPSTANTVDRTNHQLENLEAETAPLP
T3 sequence (P41145 whole entry): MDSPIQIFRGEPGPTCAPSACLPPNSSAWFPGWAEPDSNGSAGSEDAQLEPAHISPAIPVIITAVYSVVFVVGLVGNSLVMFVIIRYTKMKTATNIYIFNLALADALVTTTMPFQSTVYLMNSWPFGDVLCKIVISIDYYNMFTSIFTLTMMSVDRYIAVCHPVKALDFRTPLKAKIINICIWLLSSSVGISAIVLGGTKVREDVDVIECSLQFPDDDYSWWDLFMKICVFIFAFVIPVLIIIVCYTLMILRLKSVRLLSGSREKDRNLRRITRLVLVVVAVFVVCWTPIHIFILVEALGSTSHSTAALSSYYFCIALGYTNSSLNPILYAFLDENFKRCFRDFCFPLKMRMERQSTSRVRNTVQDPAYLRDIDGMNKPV
Sequence of Mu-type opioid receptor (Cavia porcellus, UniProt P97266) (P97266 whole entry): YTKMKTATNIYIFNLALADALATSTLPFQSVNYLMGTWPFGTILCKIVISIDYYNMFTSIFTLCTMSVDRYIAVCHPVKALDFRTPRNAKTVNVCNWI

SMILES | Ki [1] [nM] | Ki (Mu-type opioid receptor [2]) [nM] | Ki [3] [nM] | Ki [4] [nM] | Ki (Mu-type opioid receptor [5]) [nM] | Ki [6] [nM] | Ki (Mu-type opioid receptor [7]) [nM] | Ki [8] [nM]
CCCCC(=N)NCCc1ccc2[nH]c3c(c2c1)C[C@@]1(O)C2Cc4ccc(O)c5c4C1(CCN2CC1CC1)C3O5 (some centres undefined) | 3.31 | 219 | 0.17 | 0.3 | 5.33 | 38.2 |  | 
CCCCC(=N)NCc1ccc2[nH]c3c(c2c1)C[C@@]1(O)C2Cc4ccc(O)c5c4C1(CCN2CC1CC1)C3O5 (some centres undefined) |  |  |  |  |  |  | 3.5 | 5.5
NCCc1ccc2[nH]c3c(c2c1)C[C@@]1(O)C2Cc4ccc(O)c5c4C1(CCN2CC1CC1)C3O5 (some centres undefined) | 3.79 | 29.6 | 0.12 | 1.08 | 17.4 | 28.2 |  | 
